Experimental data taken from patent publication US11458123B2 (Arvinas, Inc., priority 2016, dated 2022).

tested on: tau protein; test: Tau protein in vitro degradation assay (Western blot, Tau-13 antibody); type: cell-based, human; conditions: SK-N-SH cells; 72 hours of incubation; tested at 300 nM, 100 nM, 33 nM and 11 nM; Western blot, Tau-13 antibody
How it was run: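 SK-N-SH cells, seeded ≥18 h beforehand, were incubated 72 h with tau PROTACs at 1000, 300 and 100 nM or at 300, 100, 33 and 11 nM. Lysates in protease-inhibitor buffer were resolved by SDS-PAGE; tau quantified by Western blot with Tau-13 antibody recognising all human tau forms.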

SMILES | Degradation activity* (highest amount of degradation observed at any dosage; tau protein remaining)
Cn1c2ccncc2c2ccc(-c3ccc(OCCOCCOCCOCCCCC(Oc4ccc5c(c4)C(=O)N(C4CCC(=O)NC4=O)C5=O)C(F)(F)F)nc3)cc21 (stereo not shown) [Compound 129, 2-(2,6-dioxopiperidin-3-yl)-5-((1,1,1-trifluoro-6-(2-(2-(2-((5-(5-methyl-5H-pyrido[4,3-b]indol-7-yl)pyridin-2-yl)oxy)ethoxy)ethoxy)ethoxy)hexan-2-yl)oxy)isoindoline-1,3-dione] | C (>80% tau protein remaining after 72 hours of incubation with the test compound)
Cn1c2ccncc2c2ccc(-c3cnc(OC4CCN(CCCOCCCOC5CN(c6ccc7c(c6)C(=O)N(C6CCC(=O)NC6=O)C7=O)C5)CC4)c(C(F)(F)F)c3)cc21 (stereo not shown) [Compound 130, 2-(2,6-dioxopiperidin-3-yl)-5-(3-(3-(3-(4-((5-(5-methyl-5H-pyrido[4,3-b]indol-7-yl)-3-(trifluoromethyl)pyridin-2-yl)oxy)piperidin-1-yl)propoxy)propoxy)azetidin-1-yl)isoindoline-1,3-dione] | B (≤80% and >50% tau protein remaining after 72 hours of incubation with the test compound)
Cn1c2ccncc2c2ccc(-c3ccc(OCCOCCOCCOCCOCCOCCOc4ccc5c(c4)C(=O)N(C4CCC(=O)NC4=O)C5=O)nc3)cc21 (stereo not shown) [Compound 131, 2-(2,6-dioxopiperidin-3-yl)-5-((17-((5-(5-methyl-5H-pyrido[4,3-b]indol-7-yl)pyridin-2-yl)oxy)-3,6,9,12,15-pentaoxaheptadecyl)oxy)isoindoline-1,3-dione] | A (≤50% tau protein remaining after 72 hours of incubation with the test compound)
Cn1c2ccncc2c2ccc(-c3ccc(OCCOCCOCCOCCOCCOCCOCCOc4ccc5c(c4)C(=O)N(C4CCC(=O)NC4=O)C5=O)nc3)cc21 (stereo not shown) [Compound 132, 2-(2,6-dioxopiperidin-3-yl)-5-((20-((5-(5-methyl-5H-pyrido[4,3-b]indol-7-yl)pyridin-2-yl)oxy)-3,6,9,12,15,18-hexaoxaicosyl)oxy)isoindoline-1,3-dione] | A (≤50% tau protein remaining after 72 hours of incubation with the test compound)
Cn1c2ccncc2c2ccc(-c3ccc(OCCCCCOCCCCCCC4CN(c5ccc6c(c5)C(=O)N(C5CCC(=O)NC5=O)C6=O)C4)nc3)cc21 (stereo not shown) [Compound 133, 2-(2,6-dioxopiperidin-3-yl)-5-(3-(6-((5-((5-(5-methyl-5H-pyrido[4,3-b]indol-7-yl)pyridin-2-yl)oxy)pentyl)oxy)hexyl)azetidin-1-yl)isoindoline-1,3-dione] | A (≤50% tau protein remaining after 72 hours of incubation with the test compound)
Cn1c2ccncc2c2ccc(-c3ccc(O[C@H]4C[C@H](Oc5ccc(C#CCCCCOc6ccc7c(c6)C(=O)N(C6CCC(=O)NC6=O)C7=O)nn5)C4)nc3)cc21 (stereo partly shown) [Compound 134, 2-(2,6-dioxopiperidin-3-yl)-5-((6-(6-((1r,3r)-3-((5-(5-methyl-5H-pyrido[4,3-b]indol-7-yl)pyridin-2-yl)oxy)cyclobutoxy)pyridazin-3-yl)hex-5-yn-1-yl)oxy)isoindoline-1,3-dione] | B (≤80% and >50% tau protein remaining after 72 hours of incubation with the test compound)
Cn1c2ccncc2c2ccc(-c3ccc(O[C@H]4C[C@H](CN5CC6(CC(OCCCCOc7ccc8c(c7)C(=O)N(C7CCC(=O)NC7=O)C8=O)C6)C5)C4)nc3)cc21 (stereo partly shown) [Compound 135, 2-(2,6-dioxopiperidin-3-yl)-5-(4-((2-(((1r,3r)-3-((5-(5-methyl-5H-pyrido[4,3-b]indol-7-yl)pyridin-2-yl)oxy)cyclobutyl)methyl)-2-azaspiro[3.3]heptan-6-yl)oxy)butoxy)isoindoline-1,3-dione] | B (≤80% and >50% tau protein remaining after 72 hours of incubation with the test compound)
Cn1c2ccncc2c2ccc(-c3ccc(O[C@H]4C[C@@H](C(=O)N5CC6(CC(OCCCCOc7ccc8c(c7)C(=O)N(C7CCC(=O)NC7=O)C8=O)C6)C5)C4)nc3)cc21 (stereo partly shown) [Compound 136, 2-(2,6-dioxopiperidin-3-yl)-5-(4-((2-((1 s,3 s)-3-((5-(5-methyl-5H-pyrido[4,3-b]indol-7-yl)pyridin-2-yl)oxy)cyclobutane-1-carbonyl)-2-azaspiro[3.3]heptan-6-yl)oxy)butoxy)isoindoline-1,3-dione] | C (>80% tau protein remaining after 72 hours of incubation with the test compound)
Cn1c2ccncc2c2ccc(-c3ccc(O[C@H]4C[C@H](N(C)C5CC6(C5)CN(C(=O)CCCCOc5ccc7c(c5)C(=O)N(C5CCC(=O)NC5=O)C7=O)C6)C4)nc3)cc21 (stereo partly shown) [Compound 137, 2-(2,6-dioxopiperidin-3-yl)-5-((5-(6-(methyl((1r,3r)-3-((5-(5-methyl-5H-pyrido[4,3-b]indol-7-yl)pyridin-2-yl)oxy)cyclobutyl)amino)-2-azaspiro[3.3]heptan-2-yl)-5-oxopentyl)oxy)isoindoline-1,3-dione] | C (>80% tau protein remaining after 72 hours of incubation with the test compound)
O=C1CCC(N2C(=O)c3ccc(OCCOCCOCCOCCOCCOc4ccc(-c5ccc6c7cnccc7n(C(F)F)c6c5)cn4)cc3C2=O)C(=O)N1 (stereo not shown) [Compound 138, 5-((14-((5-(5-(difluoromethyl)-5H-pyrido[4,3-b]indol-7-yl)pyridin-2-yl)oxy)-3,6,9,12-tetraoxatetradecyl)oxy)-2-(2,6-dioxopiperidin-3-yl)isoindoline-1,3-dione] | B (≤80% and >50% tau protein remaining after 72 hours of incubation with the test compound)
Cn1c2ccncc2c2ccc(-c3cnc(OCCOCCOCCOCCOCCOc4ccc5c(c4)C(=O)N(C4CCC(=O)NC4=O)C5=O)c(F)c3)cc21 (stereo not shown) [Compound 139, 2-(2,6-dioxopiperidin-3-yl)-5-((14-((3-fluoro-5-(5-methyl-5H-pyrido[4,3-b]indol-7-yl)pyridin-2-yl)oxy)-3,6,9,12-tetraoxatetradecyl)oxy)isoindoline-1,3-dione] | B (≤80% and >50% tau protein remaining after 72 hours of incubation with the test compound)
Cc1cc(-c2ccc3c4cnccc4n(C)c3c2)cnc1OCCOCCOCCOCCOCCOc1ccc2c(c1)C(=O)N(C1CCC(=O)NC1=O)C2=O (stereo not shown) [Compound 140, 2-(2,6-dioxopiperidin-3-yl)-5-((14-((3-methyl-5-(5-methyl-5H-pyrido[4,3-b]indol-7-yl)pyridin-2-yl)oxy)-3,6,9,12-tetraoxatetradecyl)oxy)isoindoline-1,3-dione] | A (≤50% tau protein remaining after 72 hours of incubation with the test compound)
Cn1c2ccncc2c2ccc(-c3ccc(O[C@H]4C[C@H](Oc5cnc(C#CCCCCOc6ccc7c(c6)C(=O)N(C6CCC(=O)NC6=O)C7=O)nc5)C4)nc3)cc21 (stereo partly shown) [Compound 141, 2-(2,6-dioxopiperidin-3-yl)-5-((6-(5-((1r,3r)-3-((5-(5-methyl-5H-pyrido[4,3-b]indol-7-yl)pyridin-2-yl)oxy)cyclobutoxy)pyrimidin-2-yl)hex-5-yn-1-yl)oxy)isoindoline-1,3-dione] | C (>80% tau protein remaining after 72 hours of incubation with the test compound)
